Where “and” joins values, the source holds several entries; their conditions need not be identical. Equal values may be shown once. No end group written: not given here.
Key:
[1] = system: HFD-fed mice; experiment: Body weight, energy intake, organ and adipose tissue weights, DXA body fat in high-fat diet (HFD)-fed mice; format: in vivo, C57BL/6 mice; settings: for Total fat weight: DXA; for Total fat weight / food intake between different drug groups (appetite): EIA10 100 mg/kg/d or orlistat 60 mg/kg/d oral; for food intake between different drug groups (appetite): HFD-fed mice; for Total energy intake: over 10 weeks
Description: (§1) Four-week-old male C57BL/6 mice were purchased from the Nara Bio Animal Center (NARA Biotech, Seoul, Korea) All experiments were approved by the Institutional Animal Care and Use Committee of Konkuk University (14 July 2019). All possible efforts were made to minimize the suffering and the animal count utilized in this study (KU19102). The mice were randomly divided into the following two groups after 1 week of acclimatization: n = 8 in the control group, fed a normal diet (Control, fat content of 10% kcal), and n = 30, fed a high-fat diet (HFD, fat content of 60% kcal). Mice were registered daily for food intake, and their body weights were assessed twice a week. After 5 weeks, mice with a body weight 20% higher than that of the control group were picked and divided randomly into three groups (n = 8/group): HFD + EIA10, 100 mg/kg/d; and HFD + orlistat, 60 mg/kg /d for 5 weeks. As a positive control, Orlistat was used. After 12 weeks, the mice were subjected to fasting overnight and sacrificed (Figure 2A). Blood samples were harvested for further analysis. Sections of epididymal adipose and liver tissues were fixed in 10% formaldehyde for histological analyses and frozen in liquid nitrogen.
Dual-energy X-ray absorptiometry (DXA) measurements were used to compare the body fat. DXA measurements were performed after 4 weeks of administration using a total-body scanner (InAlyzer dual X-ray absorptiometry, Medikors, Gyeonggi, Korea). Data were obtained once with low energy and once with high energy.

[2] = system: HFD-fed mice; experiment: Oral glucose tolerance test, insulin levels and insulin resistance indices in HFD-fed mice; format: in vivo, C57BL/6 mice; settings: for area under the OGTT curve (AUC): oral glucose 1 g/kg after 12 h fast, Figure 3B
Description: as §1, with “After 5 weeks, mice with a body weight 20% higher than that of the control group were picked and divided randomly into three groups (n = 8/group):” left out, “nitrogen. An oral glucose tolerance test (OGTT) to determine the clearance of a standardized glucose load was performed after 5 weeks of oral administration. Plasma glucose was determined under postabsorptive conditions with blood collected at time ‒30 and 0 and then after oral administration of 1 g/kg of glucose at 30, 60, 90, and 120 min. Using a Blood Glucose Testing System (891 Hogye-Dong Dongan-gu, Anyang, Gyeonggi-do, Korea), blood samples were measured from the tail veins. A mouse ultrasensitive insulin ELISA package (ALPCO, Salem, NH, USA) was quantified for serum insulin. The hepatic insulin resistance index (hepatic IRI) was estimated by using the validated method of Matsuda and DeFronzo [43]. Insulin resistance was assessed using the homeostasis model assessment of insulin resistance (HOMA-IR). HOMA is a mathematically derived model of glucose–insulin feedback.” for “nitrogen.”

[3] = system: HFD-fed mice; experiment: Serum biochemical parameters in HFD-fed mice; format: in vivo, C57BL/6 mice; settings: EIA10 100 mg/kg/d or orlistat 60 mg/kg/d oral for 5 weeks, mean ± SEM, n = 8; for ALT (alanine aminotransferase) / AST (aspartate aminotransferase) / HDL (high-density lipoprotein cholesterol) / LDL/VLDL / TC (total cholesterol) / TG (triglyceride): serum
Description: as §1
(§2) Through heart puncture, blood samples were collected and serum was isolated through centrifugation (3000 rpm for 20 min) and processed before further study at −80 °C. An automated analyzer (Abaxis VETSVAN VS2 Chemistry Analyzer, Union City, CA, USA) assessed serum levels of blood urea nitrogen, alanine aminotransferase (ALT), alkaline phosphatase, aspartate aminotransferase (AST), total protein, serum albumin, and electrolytes. Using a fast blood lipid analyzer (OSANG Healthcare Lipid Pro, Anyang, Korea), total cholesterol (TC), low-density lipoprotein cholesterol (LDL), high-density lipoprotein cholesterol (HDL), and TG were calculated. Adiponectin was analyzed by Western blotting, and leptin was quantified using a leptin enzyme-linked immunosorbent assay (ELISA) kit (MERCK, DHB, Germany).

[4] = system: 3T3-L1 cells; experiment: Lipid accumulation in differentiated 3T3-L1 cells by Oil Red O staining; format: cell-based; settings: synthesized peptides, untreated cells as control
Procedure: The 3T3-L1 cells were obtained from the Korean Cell Line Bank (Seoul, Korea). They were cultured and maintained in Dulbecco’s modified Eagle medium (DMEM) at 37 °C in a humidified atmosphere of 5% CO2. Additionally, 2-day post-confluent preadipocytes (designated day 0) were cultured in a 2-day differentiation medium composed of DMEM, 0.5 mM IBMX, 1 μM dexamethasone, and 5 μg/mL insulin to induce differentiation. The cells were then cultured in a DMEM containing 5 μg/mL insulin for another 2 days. The medium was replaced every 2 days until the cells had accumulated intracellular lipid droplets. Cells were seeded in 6-well plates, and adipocyte differentiation was induced for 8 days. On day 8, the cells were fixed with 10% buffered formalin and stained with Oil Red O solution for 60 min at room temperature. Images of lipid droplets in the 3T3-L1 adipocytes were captured using a Leica DMi1 microscope (Leica, Germany).

[5] = system: HFD-fed mice; experiment: Histological analysis of liver and epididymal adipose tissue (H&E, Oil Red O, IHC) of HFD-fed mice; format: in vivo, C57BL/6 mice
Description: as §1
Liver and epididymal adipose tissues were dissected and embedded in paraffin for histological examination. Tissue blocks were cut into 4-μm thick sections that were stained with hematoxylin and eosin. Frozen liver sections were cut into 8-μm thick sections that were stained with Oil Red O. Adipocyte sizes were assessed using a microscope under 200× magnification to measure tissue size.

[6] = system: adiponectin, leptin, SREBP-1c, PPARγ, C/EBP-α, FAS, ACC, FABP4; experiment: mRNA (real-time PCR) and protein (Western blot, ELISA) levels of adipogenic/lipogenic factors in HFD-fed mice; format: in vivo, C57BL/6 mice
Description: as §1, §2
Total cellular RNA was isolated from the epididymal adipose tissue of each group of mice using TRIzol. The first strand of complementary DNA (cDNA) was synthesized using Superscript II reverse transcriptase (Invitrogen). The conditions for RT-PCR were similar to those previously described. Quantitative real-time PCR was carried out using a Thermal Cycler Dice TP850 (Takarabio Inc., Shiga, Japan) according to the manufacturer’s protocol.
Frozen epididymal adipose tissues from mice were homogenized in liquid nitrogen. Tissue lyses were lysed in a radioimmunoprecipitation lysis buffer containing 1% protein inhibitor cocktail. They were transferred to a nitrocellulose blotting membrane and blocked with 5% skim milk, incubated overnight with primary antibodies purchased from Cell Signaling Technology, and then incubated with secondary antibodies for 2 h. Equal protein loading was ascertained using Ponceau S staining of the blotted membranes. With the help of an improved chemiluminescence detection reagent, the antibody-specific proteins were visualized and quantified using ImageJ tools.

[7] = male C57BL/6 mice on HFD, mean ± SEM, n = 8
[8] = male C57BL/6 mice on HFD, EIA10 100 mg/kg/d or orlistat 60 mg/kg/d oral for 5 weeks, mean ± SEM, n = 8

Molecule: CCCCCCCCCCC[C@@H](C[C@@H]1OC(=O)[C@H]1CCCCCC)OC(=O)[C@H](CC(C)C)NC=O [Orlistat, reference compound]
- Total fat weight [1, 7]: 13.71 ± 1.09 g
- food intake between different drug groups (appetite) [1]: No significant difference
- Body weight gain [1, 8]: 12.56 ± 0.45 g
- Epididymal adipose tissue weight [1, 8]: 1.90 ± 0.48 g
- Final body weight [1, 8]: 36.11 ± 3.92 g
- Initial body weight [1, 8]: 23.55 ± 0.07 g
- Liver weight [1, 8]: 1.14 ± 0.12 g
- Subcutaneous adipose tissue weight [1, 8]: 3.11 ± 0.53 g
- Total energy intake [1, 8]: 1031.35 kcal and 1031.35 ± 26.32 kcal
- area under the OGTT curve (AUC) ([2]; vs HFD group, p < 0.05): significantly lower
- Glucose [3]: 160.78 ± 13.62 mg/dL
- ALT (alanine aminotransferase) [3]: 44.75 ± 8.38 U/L
- AST (aspartate aminotransferase) [3]: 113.88 ± 16.17 U/L
- HDL (high-density lipoprotein cholesterol) [3]: 72.05 ± 4.38 mg/dL
- LDL/VLDL [3]: 41.21 ± 2.59 mg/dL
- TC (total cholesterol) [3]: 113.26 ± 3.40 mg/dL
- TG (triglyceride) [3]: 115.52 ± 4.66 mg/dL

Molecule: ALNQAWAFLK [Peptide 16]
- Lipid Accumulation (% of Control) [4]: 57.47 % of Control

Molecule: AVQGLLK [Peptide 5]
- Lipid Accumulation (% of Control) [4]: 48.40 % of Control

Molecule: Ala-Glu-Arg-Val-Gly-Ala-Gly-Ala-Pro-Val-Try [Peptide 17]
- Lipid Accumulation (% of Control) [4]: 35.06 % of Control

Molecule: EIAQDFK [Peptide 3]
- Lipid Accumulation (% of Control) [4]: 52.20 % of Control

Molecule: EIAQDFKTDL [EIA10]
- Total fat weight [1, 7]: 12.71 ± 0.78 g
- food intake between different drug groups (appetite) [1]: No significant difference
- Epididymal adipose tissue weight [1, 8]: 2.06 ± 0.34 g
- Final body weight [1, 8]: 37.38 ± 2.55 g
- Initial body weight [1, 8]: 23.07 ± 0.33 g
- Interscapular adipose tissue weight [1, 8]: 0.22 ± 0.06 g
- Liver weight [1, 8]: 1.22 ± 0.25 g
- Subcutaneous adipose tissue weight [1, 8]: 3.36 ± 0.58 g
- Total energy intake [1, 8]: 1026.01 kcal and 1026.01 ± 2.60 kcal
- insulin resistance (hepatic IRI, HOMA-IR) ([2]; five weeks of oral EIA10 in obese mice, Figure 3E,F): alleviated IR in the obese mice to some extent
- area under the OGTT curve (AUC) ([2]; vs HFD group, p < 0.05): significantly lower
- insulin secretion level after oral glucose ([2]; oral glucose 1 g/kg, vs HFD group, p < 0.05, Figure 3C,D): decreased
- Lipid Accumulation (% of Control) [4]: 30.22 % of Control
- Glucose [3]: 137 ± 11.47 mg/dL
- ALT (alanine aminotransferase) [3]: 58.75 ± 13.16 U/L
- AST (aspartate aminotransferase) [3]: 99.20 ± 20.00 U/L
- HDL (high-density lipoprotein cholesterol) [3]: 74.49 ± 2.57 mg/dL
- LDL/VLDL [3]: 32.97 ± 3.42 mg/dL
- TC (total cholesterol) [3]: 107.46 ± 5.15 mg/dL
- TG (triglyceride) [3]: 140.25 ± 5.23 mg/dL
- lipid droplets in the liver (Oil Red O staining of frozen sections) ([5]; EIA10 100 mg/kg/d oral 5 weeks, vs HFD group, Figure 2C,E): significantly reduced number of lipid droplets
- size of the adipose cells (epididymal fat, H&E) ([5]; EIA10 100 mg/kg/d oral 5 weeks, vs HFD group, Figure 2D): lower than that of the HFD group
- FAS in liver tissue by immunohistochemistry (IHC) ([5]; Figure 5C): inhibited
- plasma leptin concentration ([6]; ELISA, HFD-fed mice, Figure 4B): reducing
- mRNA and protein levels of SREBP-1c in the adipose tissue ([6]; HFD-fed mice treated with EIA10 vs HFD group, Figure 4C,D): lower
- protein levels of adiponectin in mouse epididymal adipose tissue ([6]; Western blot, HFD-fed mice, Figure 4A): improved
- mRNA and protein levels of PPARγ ([6]; epididymal adipose tissue, HFD group mice, Figure 4C,D): decreased
- protein levels of PPARγ, C/EBP-α, SREBP-1c, and FABP4 ([6]; epididymal adipose tissue, Western blot, Figure 4D): significantly decreased
- FAS and ACC gene expression ([6]; epididymal adipose tissue, Western blot, Figure 5A,B): inhibitory effect
- expression of PPARγ, C/EBP-α, FAS, and SREBP-1c ([6]; epididymal adipose tissue, real-time PCR, Figure 4C): downregulated

Molecule: HLQLAIR [Peptide 4]
- Lipid Accumulation (% of Control) [4]: 63.26 % of Control

Molecule: HLQLAIRNDEELNK [Peptide 22]
- Lipid Accumulation (% of Control) [4]: 83.11 % of Control

Molecule: IAQGGVLP [Peptide 6]
- Lipid Accumulation (% of Control) [4]: 38.01 % of Control

Molecule: KLPFQR [Peptide 1]
- Lipid Accumulation (% of Control) [4]: 57.85 % of Control

Molecule: NDEELNKLL [Peptide 7]
- Lipid Accumulation (% of Control) [4]: 39.44 % of Control

Molecule: NKLLSGVTIA [Peptide 14]
- Lipid Accumulation (% of Control) [4]: 77.76 % of Control

Molecule: QNIIPASTGAAK [Peptide 21]
- Lipid Accumulation (% of Control) [4]: 44.40 % of Control

Molecule: RFQSSAVMA [Peptide 12]
- Lipid Accumulation (% of Control) [4]: 57.47 % of Control

Molecule: RIVDFHMLESR [Peptide 18]
- Lipid Accumulation (% of Control) [4]: 41.94 % of Control

Molecule: SGVTIAQGGVLP [Peptide 19]
- Lipid Accumulation (% of Control) [4]: 68.00 % of Control

Molecule: STELLIR [Peptide 2]
- Lipid Accumulation (% of Control) [4]: 59.04 % of Control

Molecule: TLSDYNIQK [Peptide 13]
- Lipid Accumulation (% of Control) [4]: 68.00 % of Control

Molecule: VTIAQGGVLFNIQA [Peptide 23]
- Lipid Accumulation (% of Control) [4]: 74.36 % of Control
